Results: US20110086837A1, “COMBINATIONS OF A PI3K INHIBITOR AND A MEK INHIBITOR” (Genentech, Inc., priority 2009, published 2011)

Key:
FaDu (HNSCC) tumors = assay: FaDu xenograft model, tumor growth inhibition; format: in vivo
Experimental: (A) Treatment was then begun dosing Vehicle (open circles)), GDC-0941 (100 mg/kg, QD, PO; filled triangles), GDC-973 (5 mg/kg, QD, PO; filled squares), or the combination of GDC-0941 and GDC-0973 (filled diamonds, solid lines, n=7). (B) the SKOV-4 (ovarian) Xenograph model. Treatment was then begun dosing Vehicle (open circles,), GDC-0941 (100 mg/kg, QD, PO; filled triangles), GDC-0973 (10 mg/kg, QD, PO; filled squares), or the combination of GDC-0941 and GDC-0973 (filled diamonds). Caliper measurements of animals' tumors and animal weights were taken every 3-4 days throughout the study and tumor volumes were calculated (TV=[L×(W^2)]/2) and plotted +/−SEM. Percent tumor growth inhibition was calculated by calculating the area under the curve (AUC) of each treatment group relative to vehicle control. Student's t-tests were performed on day 21 data to determine significance by p-value.
FaDu (HNSCC) tumor-bearing animals were treated with either single agent GDC-0973 (5 mg/kg, daily) or GDC-0941 (100 mg/kg, daily) or the combination of the two.

MOLM-16 (AML) tumors = assay: MOLM-16 xenograft model, tumor growth inhibition; format: in vivo, nude mice (nu/nu)
Experimental: (A) Treatment was then begun dosing Vehicle (open circles)), GDC-0941 (100 mg/kg, QD, PO; filled triangles), GDC-973 (10 mg/kg, QD, PO; filled squares), or the combination of GDC-0941 and GDC-0973 (filled diamonds, solid lines, n=7). […] Treatment was then begun dosing Vehicle (open circles,), GDC-0941 (100 mg/kg, QD, PO; filled triangles), GDC-0973 (5 mg/kg, QD, PO; filled squares), or the combination of GDC-0941 and GDC-0973 (filled diamonds). Caliper measurements of animals' tumors and animal weights were taken every 3-4 days throughout the study and tumor volumes were calculated (TV=[L×(W^2)]/2) and plotted +/−SEM. Percent tumor growth inhibition was calculated by calculating the area under the curve (AUC) of each treatment group relative to vehicle control. Student's t-tests were performed on day 21 data to determine significance by p-value.
MOLM-16 (AML) tumor-bearing animals were treated with either single agent GDC-0973 (10 mg/kg, daily) or GDC-0941 (100 mg/kg, daily) or the combination of the two.

[1] = test system: A2058 (Melanoma, BRAF V600E, PTEN null) tumors; assay: A2058 xenograft model, tumor growth inhibition; format: in vivo, nude mice (nu/nu); conditions: for sensitivity as single agent: A2058 xenograft, tumor growth delay, but not stasis or regression
Experimental: A2058 tumor-bearing animals were tested with both moderate and high doses of GDC-0973 (6 and 10 mg/kg, daily) and GDC-0941 (30 and 100 mg/kg, daily) as well as combinations of the lower and higher doses. […] Likewise, A2058 tumors are also moderately sensitive to single agent GDC-0941 with TGIs of 18% at 30 mg/kg and 56% at 100 mg/kg (FIGS. 3A and B, respectively).

[2] = test system: NCI-H2122 (NSCLC, KRAS G12C, PI3K/PTEN WT) tumors; assay: NCI-H2122 xenograft model, tumor growth inhibition; conditions: for sensitivity as single agent: NCI-H2122 xenograft, tumor growth delay, but not stasis or regression
Experimental: NCI-H2122 cells (10×10^6 in Hanks Balance Salt Solution (HBSS)+Matrigel) were inoculated into nude mice (nu/nu) and tumors were allowed to establish to an average volume of ˜240 mm^3. […] Caliper measurements of animals' tumors and animal weights were taken every 3-4 days throughout the study and tumor volumes were calculated (TV=[L×(W^2)]/2) and plotted +/−SEM. Percent tumor growth inhibition was calculated by calculating the area under the curve (AUC) of each treatment group relative to vehicle control. Student's t-tests were performed on day 21 data to determine significance by p-value.
GDC-0973 and GDC-0941 were used as therapeutic agents in the NCI-H2122 (NSCLC, KRAS^G12C, PI3K/PTEN WT) and A2058 (Melanoma, BRAF^V600E, PTEN^null) xenograft models. […]

SKOV-3 (Ovarian) tumors = assay: SKOV-3 xenograft model, tumor growth inhibition; format: in vivo; conditions: GDC-0941 single agent, 100 mg/kg daily
Experimental: (B) the […] (ovarian) Xenograph model.
SKOV-3 (Ovarian) tumor-bearing animals were treated with either single agent GDC-0973 (10 mg/kg, daily) or GDC-0941 (100 mg/kg, daily) or the combination of the two. […] The improved efficacy of the combination was statistically significant versus single agent GDC-0973 and GDC-0941 (p=0.0017 and p=0.0283, respectively, on Day 22).

[3] = GDC-0941 single agent, 100 mg/kg daily
[4] = GDC-0973 single agent, 10 mg/kg daily

| SMILES | percent tumor growth inhibition (% TGI) (FaDu (HNSCC) tumors; [3]) | percent tumor growth inhibition (% TGI) (MOLM-16 (AML) tumors; [3]) | sensitivity as single agent [1] | TGI ([1]; GDC-0941 single agent, 30 mg/kg daily) | TGI [1, 3] | tumor growth inhibition (TGI, relative to vehicle control) ([2]; GDC-0941 single agent, 30 mg/kg arm (so in the source)) | sensitivity as single agent [2] | % TGI (SKOV-3 (Ovarian) tumors) | percent tumor growth inhibition (% TGI) (FaDu (HNSCC) tumors; GDC-0973 single agent, 5 mg/kg daily) | percent tumor growth inhibition (% TGI) (MOLM-16 (AML) tumors; [4]) | TGI ([1]; GDC-0973 single agent, 6 mg/kg daily) | TGI [1, 4] | tumor growth inhibition (TGI, relative to vehicle control) ([2]; GDC-0973 single agent, 5 mg/kg QD arm) |
| --- | --- | --- | --- | --- | --- | --- | --- | --- | --- | --- | --- | --- | --- |
| CS(=O)(=O)N1CCN(Cc2cc3nc(-c4cccc5[nH]ncc45)nc(N4CCOCC4)c3s2)CC1 [GDC-0941, 4-(2-(1H-indazol-4-yl)-6-((4-(methylsulfonyl)piperazin-1-yl)methyl)thieno[3,2-d]pyrimidin-4-yl)morpholine] | 33% | 40% | moderate sensitivity | 18% | 56% | 73% | moderate sensitivity | 51% | – | – | – | – | – |
| O=C(c1ccc(F)c(F)c1Nc1ccc(I)cc1F)N1CC(O)([C@@H]2CCCCN2)C1 [GDC-0973, [3,4-Difluoro-2-(2-fluoro-4-iodo-phenylamino)-phenyl]-((S)-3-hydroxy-3-piperidin-2-yl-azetidin-1-yl)-methanone] | – | – | moderate sensitivity | – | – | – | moderate sensitivity | – | 41% | 57% | 41% | 62% | 57% |
